System: splenocytes from BALB/c mice infected with tk--HSV-2
Test: IFN-γ ELISPOT, splenocytes after intravaginal tk--HSV-2 infection
Format: cell-based
Settings: splenocytes from individual BALB/c mice after non-lethal intravaginal infection with live attenuated HSV-2, single peptides at 1 μg mL^-1 (Concanavalin A 2.5 μg mL^-1), means of duplicates

Substance | SFU per 10^6 responder cells, tk--HSV-2 infected mice
HTALATVTLKYAL [UL47 509-521] | 25 SFU per 10^6 responder cells
LLYWPGVRALLGR [UL47 369-381] | 21 SFU per 10^6 responder cells
Concanavalin A [reference compound] | TNTC ^‡
YAGRMTYIATGAL [UL47 389-401] | 43 SFU per 10^6 responder cells
